Data on eight compounds can be found in ChEMBL document CHEMBL1138775, “Soft docking and multiple receptor conformations in virtual screening” (J Med Chem, 2004).

Assay [1] deals with T1, Aldo-keto reductase family 1 member B1 (Sus scrofa, UniProt P80276). The experiment in a line: Inhibition of aldose reductase from pig lenses.
In assay [2] the target is T1, Aldo-keto reductase family 1 member B1. The experiment in a line: Inhibition of aldose reductase from pig lenses; no inhibition.

In assay [1], `O=C(O)Cc1cn(Cc2cccc(Cl)c2)c2ccccc12` gave an IC50 of 14 µM.

In assay [1], `Clc1ccc(CN(Cc2ccc(Cl)cc2)c2nnn[nH]2)cc1` displayed an IC50 of 336 µM.

Regarding `O=C(O)c1nnn(-c2cccc(Br)c2)c1-c1ccccc1`, it took 274 µM to reach half-maximal inhibition in assay [1] (IC50).

The compound `CC(OCc1ccc(Cl)cc1)C(NC(=O)CC(C)(C)C)C(=O)O` (stereo not drawn) had an IC50 in assay [2] of more than 400 µM.

In the case of `O=C(O)C1CC(=O)N(Cc2ccc(Cl)cc2)C1` (stereo not drawn), in assay [1], the IC50 amounted to 8 µM.

Consider `CC(OCc1ccccc1)C(NC(=O)OCc1ccccc1)C(=O)O` (stereo not drawn), for which the IC50 in assay [2] was more than 300 µM.

The compound `O=C1NC(=O)[C@@]2(CCOc3ccc(F)cc32)N1` [SORBINIL] yielded an IC50 in assay [1] of 1.1 µM.

For `COc1ccc2c(C(=S)N(C)CC(=O)O)cccc2c1C(F)(F)F` [TOLRESTAT], the IC50 in assay [1] was determined as 0.038 µM.
